From the NIST ThermoML archive (doi:10.1016/j.jct.2006.10.016) come the findings set out here.

The conditions of this data set: 101 kPa, Liquid.

Numbers after ± are expanded uncertainties.

Turning to `CCO` [ethanol], the mass density runs as follows: (303.15 K) 783.4 ± 2 kg/m3; (308.15 K) 779 ± 2.1 kg/m3; (313.15 K) 774.6 ± 2.2 kg/m3; (318.15 K) 769.8 ± 2.3 kg/m3; (323.15 K) 766.1 ± 2.4 kg/m3. Moreover, the viscosity (303.15 K) is listed as 1.086 ± 0.051 mPa·s; the viscosity (308.15 K) was 0.9732 ± 0.047 mPa·s; the viscosity (313.15 K) was 0.8596 ± 0.042 mPa·s; the viscosity (318.15 K) was 0.8284 ± 0.041 mPa·s; the viscosity (323.15 K) is on record as 0.7493 ± 0.037 mPa·s.

With `CO` [methanol], the mass density turned out to be 781.3 ± 1.9 kg/m3 (303.15 K); 778.2 ± 2.1 kg/m3 (308.15 K); 772.4 ± 2.2 kg/m3 (313.15 K); 767.8 ± 2.3 kg/m3 (318.15 K); 762.7 ± 2.4 kg/m3 (323.15 K). In addition, the viscosity runs as follows: (303.15 K) 0.5178 ± 0.028 mPa·s; (308.15 K) 0.4843 ± 0.026 mPa·s; (313.15 K) 0.4515 ± 0.025 mPa·s; (318.15 K) 0.4233 ± 0.024 mPa·s; (323.15 K) 0.395 ± 0.023 mPa·s.

As for `CCCO` [propan-1-ol], the mass density reads like this: (303.15 K) 795.5 ± 2 kg/m3; (308.15 K) 791.1 ± 2.1 kg/m3; (313.15 K) 787 ± 2.2 kg/m3; (318.15 K) 783.3 ± 2.3 kg/m3; (323.15 K) 779.5 ± 2.4 kg/m3. Further, the viscosity worked out at 1.733 ± 0.078 mPa·s (303.15 K); 1.534 ± 0.07 mPa·s (308.15 K); 1.367 ± 0.063 mPa·s (313.15 K); 1.234 ± 0.058 mPa·s (318.15 K); 1.1 ± 0.052 mPa·s (323.15 K).

In the case of `CC(C)O` [propan-2-ol], the mass density (303.15 K) is 776.4 ± 1.9 kg/m3; the mass density (308.15 K) was determined as 772.6 ± 2 kg/m3; the mass density (313.15 K) came out at 768.6 ± 2.1 kg/m3; the mass density (318.15 K) stood at 763.9 ± 2.3 kg/m3; the mass density (323.15 K) came out at 758.8 ± 2.4 kg/m3. Further, the viscosity reads like this: (303.15 K) 1.792 ± 0.081 mPa·s; (308.15 K) 1.553 ± 0.071 mPa·s; (313.15 K) 1.355 ± 0.062 mPa·s; (318.15 K) 1.182 ± 0.055 mPa·s; (323.15 K) 1.041 ± 0.049 mPa·s.
